From publication PMC7044277 (Nature Communications, 2020)
“And” between values parts separate entries of the source, which are not always exact repeats. Identical values can stand only once.

What was measured:
DRD3 wild-type = DRD3 wild-type (Homo sapiens, UniProt P35462); experiment: Radioligand competition binding, [3H]-N-methylspiperone; settings: DRD3; [3H]-methylspiperone (0.8-1.0 nM); read-out: Ki
DRD2 F1103.28A [1] = biological target: T1, DRD2 F1103.28A (Homo sapiens, UniProt P14416, F110A); experiment: β-arrestin2 recruitment (Tango), mutant; format: cell-based; design: expressed in transfected cells; host or cells: HEK293T (ATCC CRL-11268)
T1 sequence (P14416 whole entry F110A): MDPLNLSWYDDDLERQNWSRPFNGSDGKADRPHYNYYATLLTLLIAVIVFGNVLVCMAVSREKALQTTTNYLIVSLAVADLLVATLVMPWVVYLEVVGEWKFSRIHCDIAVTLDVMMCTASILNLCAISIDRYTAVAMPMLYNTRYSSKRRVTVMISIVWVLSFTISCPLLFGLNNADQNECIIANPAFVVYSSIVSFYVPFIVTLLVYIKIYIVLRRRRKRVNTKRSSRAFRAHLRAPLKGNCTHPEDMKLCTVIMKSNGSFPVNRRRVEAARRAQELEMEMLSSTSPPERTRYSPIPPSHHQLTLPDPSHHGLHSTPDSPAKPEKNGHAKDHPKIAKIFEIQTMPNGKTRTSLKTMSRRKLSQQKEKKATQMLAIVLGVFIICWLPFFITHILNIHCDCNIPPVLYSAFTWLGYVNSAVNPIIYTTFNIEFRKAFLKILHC

[2] = biological target: DRD2 (D2 long receptor) wild-type (Homo sapiens, UniProt P14416); experiment: Radioligand competition binding, [3H]-N-methylspiperone, HEK293T membranes; settings: DRD2; [3H]-methylspiperone (0.8-1.0 nM); read-out: Ki
Sequence of DRD2 (D2 long receptor) wild-type (P14416 whole entry): as the sequence (P14416 whole entry F110A) above, with A110F counted along it

DRD3 = DRD3 (Homo sapiens, UniProt P35462); experiment: β-arrestin2 recruitment (Tango); format: cell-based; settings: DRD3, Tango
Sequence of DRD3 (P35462 whole entry): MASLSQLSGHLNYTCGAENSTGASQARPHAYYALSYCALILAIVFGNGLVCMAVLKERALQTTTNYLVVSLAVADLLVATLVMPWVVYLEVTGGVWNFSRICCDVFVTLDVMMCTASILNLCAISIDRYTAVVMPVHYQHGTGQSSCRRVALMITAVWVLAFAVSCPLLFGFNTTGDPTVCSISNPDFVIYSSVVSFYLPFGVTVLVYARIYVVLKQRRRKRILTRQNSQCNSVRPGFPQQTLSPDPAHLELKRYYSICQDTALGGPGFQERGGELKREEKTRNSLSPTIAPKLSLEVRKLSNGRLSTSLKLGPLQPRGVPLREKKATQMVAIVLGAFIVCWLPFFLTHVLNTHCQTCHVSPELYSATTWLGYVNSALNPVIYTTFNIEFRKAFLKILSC

DRD3 F1063.28A [3] = biological target: T2, DRD3 F1063.28A (Homo sapiens, UniProt P35462, F106A); experiment: biochemical; format: binding
T2 sequence (P35462 whole entry F106A): as the sequence (P35462 whole entry) above, with F106A counted along it

DRD2 F1103.28A [4] = biological target: T1, DRD2 F1103.28A; format: binding; design: expressed in transfected cells; host or cells: HEK293T (ATCC CRL-11268)
DRD4 (D4.4 variant) [5] = biological target: T3, DRD4 (D4.4 variant) (Homo sapiens, UniProt P21917); experiment: Gαi/o-mediated cAMP inhibition (GloSensor); format: cell-based; settings: DRD4; agonist, cAMP inhibition; read-out: EC50 ± SEM
T3 sequence (P21917 1-419): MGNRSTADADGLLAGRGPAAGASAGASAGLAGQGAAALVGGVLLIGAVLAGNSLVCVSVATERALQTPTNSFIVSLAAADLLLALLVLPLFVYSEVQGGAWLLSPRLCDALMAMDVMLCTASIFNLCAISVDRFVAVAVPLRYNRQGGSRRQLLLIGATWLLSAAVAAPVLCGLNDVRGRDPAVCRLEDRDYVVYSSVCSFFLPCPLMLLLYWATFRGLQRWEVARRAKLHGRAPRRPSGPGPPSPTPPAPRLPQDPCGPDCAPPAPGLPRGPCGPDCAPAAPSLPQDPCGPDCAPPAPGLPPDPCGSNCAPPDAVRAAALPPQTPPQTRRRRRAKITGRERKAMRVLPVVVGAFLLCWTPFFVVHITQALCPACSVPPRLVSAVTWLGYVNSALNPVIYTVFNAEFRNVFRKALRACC

DRD2 (D2 long receptor) [6] = biological target: T4, DRD2 (D2 long receptor) (Homo sapiens, UniProt P14416); experiment: β-arrestin2 recruitment (Tango), HTLA cells; format: cell-based; settings: for response, Fig_S11e dose-response source data: replicate values
T4 sequence (P14416 whole entry): as the sequence (P14416 whole entry F110A) above, with A110F counted along it

DRD2 F1103.28A [7] = biological target: T1, DRD2 F1103.28A; experiment: Gαi/o-mediated cAMP inhibition (GloSensor), mutant; format: cell-based; design: expressed in transfected cells; host or cells: HEK293T (ATCC CRL-11268)
DRD2 (D2 long receptor) [8] = biological target: T4, DRD2 (D2 long receptor); experiment: Gαi/o-mediated cAMP inhibition (GloSensor split-luciferase cAMP reporter), HEK293T; format: cell-based; settings: for response, Fig_S11d dose-response source data: replicate values;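 as to all read-outs here: compounds applied 15 min at room temperature, then luciferin plus 400 nM isoproterenol to raise cAMP through endogenous β2-adrenergic receptors, luminescence read 15 min later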
DRD2 F1103.28L [9] = biological target: T5, DRD2 F1103.28L (Homo sapiens, UniProt P14416, F110L); experiment: Gαi/o-mediated cAMP inhibition (GloSensor), mutant; format: cell-based
T5 construct: expressed in transfected cells; host or cells: HEK293T (ATCC CRL-11268)
T5 sequence (P14416 whole entry F110L): as the sequence (P14416 whole entry F110A) above, with A110L counted along it

[10] = biological target: T6, DRD4 (D4.4 variant) wild-type (Homo sapiens, UniProt P21917); experiment: Radioligand competition binding, [3H]-N-methylspiperone; settings: DRD4; [3H]-methylspiperone (0.8-1.0 nM); read-out: Ki
T6 sequence (P21917 1-419): T3 sequence (P21917 1-419)

DRD4 (D4.4 variant) [11] = biological target: T3, DRD4 (D4.4 variant); experiment: β-arrestin2 recruitment (Tango); format: cell-based; settings: DRD4; Tango; read-out: EC50 ± SEM
DRD3 F1063.28A [12] = biological target: T2, DRD3 F1063.28A; experiment: cell-based; format: cell-based
DRD2 F1103.28L [13] = biological target: T5, DRD2 F1103.28L; experiment: β-arrestin2 recruitment (Tango), mutant; format: cell-based
[14] = read-out: Emax relative to quinpirole response

Sequence of DRD3 wild-type (P35462 whole entry): as the sequence (P35462 whole entry) above

Question: Which results are given for `CCOc1cccc2cc(C(C)NCC3(O)CCCCCC3)oc12` (stereo not shown) [O4LE7]?
Answer: Ki (DRD3 wild-type): 0.24 µM; EC50 (DRD2 F1103.28A [1]): > 10 µM; Ki [2]: 1.58 µM; EC50 (DRD3; read-out: EC50 ± SEM): 0.803 ± 0.265 µM; Emax (DRD3; [14]): 32.3%; Ki (DRD3 F1063.28A [3]): 0.417 µM; affinity decreased, mutant vs wild type (DRD3 F1063.28A [3]; DRD3 Phe106^3.28Ala vs wild-type DRD3): 1.75 fold; Ki (DRD2 F1103.28A [4]; DRD2 F1103.28A, read-out: pKi ± SEM (converted)): 0.214 µM; affinity increase (binding enhanced), mutant vs wild type (DRD2 F1103.28A [4]; DRD2 Phe110^3.28Ala vs wild-type DRD2): 7.52 fold; EC50 (DRD4 (D4.4 variant) [5]): > 10 µM; EC50 (DRD2 (D2 long receptor) [6]; DRD2, β-arrestin2 recruitment (Tango), read-out: EC50 ± SEM): 0.0446 ± 0.00471 µM; response, Fig_S11e dose-response source data (DRD2 (D2 long receptor) [6]; Log[Drug] -6.52): 70.7144; response, Fig_S11e dose-response source data (DRD2 (D2 long receptor) [6]; Log[Drug] -7): 60.0625 and 58.8888 and 58.966 and 44.6969 and 52.556 and 54.4002 and 47.2717 and 45.6897 and 52.8235; response, Fig_S11e dose-response source data (DRD2 (D2 long receptor) [6]; Log[Drug] -7.52): 37.663 and 37.8279 and 34.2682 and 29.2235 and 29.8377 and 33.7069 and 31.0328 and 28.5097 and 31.1567; response, Fig_S11e dose-response source data (DRD2 (D2 long receptor) [6]; Log[Drug] -8): 19.0993 and 25.2494 and 16.3411 and 14.3144 and 11.2312 and 12.8766 and 17.2566 and 18.2263 and 16.5156; response, Fig_S11e dose-response source data (DRD2 (D2 long receptor) [6]; Log[Drug] -8.52): 6.955 and 10.6803 and 8.41 and 5.811 and 4.949 and 5.989 and 8.148 and 9.142 and 8.777; response, Fig_S11e dose-response source data (DRD2 (D2 long receptor) [6]; Log[Drug] -9): 5.592 and 4.443 and 5.4634 and 4.207 and 4.266 and 4.232 and 6.141 and 5.2483 and 8.786; response, Fig_S11e dose-response source data (DRD2 (D2 long receptor) [6]; Log[Drug] -9.52): 4.527 and 4.325 and 4.4009 and 4.395 and 4.556 and 4.701 and 4.762 and 4.575 and 4.648; response, Fig_S11e dose-response source data (DRD2 (D2 long receptor) [6]; Log[Drug] -10): 3.636 and 4.222 and 3.934 and 4.061 and 4.088 and 4.136 and 4.898 and 3.74 and 4.41; response, Fig_S11e dose-response source data (DRD2 (D2 long receptor) [6]; Log[Drug] -10.52): 4.52 and 6.171 and 4.768 and 3.986 and 4.148 and 4.0514 and 3.608 and 3.803 and 4.57; response, Fig_S11e dose-response source data (DRD2 (D2 long receptor) [6]; Log[Drug] -11): 5.604 and 3.965 and 4.161 and 3.823 and 4.063 and 4.032 and 3.814 and 4.075 and 4.582; response, Fig_S11e dose-response source data (DRD2 (D2 long receptor) [6]; Log[Drug] -11.52): 3.3514 and 3.514 and 3.342 and 3.863 and 4.025 and 4.187 and 4.1 and 3.746 and 4.367; response, Fig_S11e dose-response source data (DRD2 (D2 long receptor) [6]; Log[Drug] -12): 4.706 and 3.881 and 4.189 and 3.844 (2×) and 3.873 and 3.954 and 3.594 and 3.602; Emax (DRD2 (D2 long receptor) [6]; HTLA, read-out: Emax relative to quinpirole response, DRD2, Tango): 71.8%; EC50 (DRD2 F1103.28A [7]): > 10 µM; EC50 (DRD2 (D2 long receptor) [8]; DRD2, agonist, Gαi/o-mediated cAMP inhibition, read-out: EC50 ± SEM): 0.00165 ± 0.00105 µM; response, Fig_S11d dose-response source data (DRD2 (D2 long receptor) [8]; Log[Drug] -6.52): 96.8634; response, Fig_S11d dose-response source data (DRD2 (D2 long receptor) [8]; Log[Drug] -7): 95.598 and 91.4295 and 85.3505 and 88.3932 and 84.5729 and 79.5858 and 85.933 and 88.7083 and 90.2631; response, Fig_S11d dose-response source data (DRD2 (D2 long receptor) [8]; Log[Drug] -7.52): 86.7896 and 85.152 and 83.291 and 74.147 and 71.7381 and 81.1478 and 90.9653 and 82.4555 and 87.421; response, Fig_S11d dose-response source data (DRD2 (D2 long receptor) [8]; Log[Drug] -8): 74.0608 and 77.7579 and 74.8548 and 59.6561 and 53.4646 and 60.8794 and 74.9823 and 74.9154 and 83.8097; response, Fig_S11d dose-response source data (DRD2 (D2 long receptor) [8]; Log[Drug] -8.52): 64.5825 and 59.1734 and 57.1139 and 43.5468 and 40.7239 and 43.8667 and 54.9367 and 67.0577 and 71.5884; response, Fig_S11d dose-response source data (DRD2 (D2 long receptor) [8]; Log[Drug] -9): 50.9108 and 57.9824 and 64.8058 and 28.6043 and 24.1441 and 25.7626 and 68.5958 and 61.4569 and 59.9355; response, Fig_S11d dose-response source data (DRD2 (D2 long receptor) [8]; Log[Drug] -9.52): 29.7954 and 31.0609 and 40.6137 and 14.7533 and 4.309 and 6.285 and 34.6235 and 38.6026 and 45.7749; response, Fig_S11d dose-response source data (DRD2 (D2 long receptor) [8]; Log[Drug] -10): 30.912 and 22.4013 and 39.5964 and 4.779 and -4.2354 and 0.1871 and 39.589 and 34.2056 and 43.2671; response, Fig_S11d dose-response source data (DRD2 (D2 long receptor) [8]; Log[Drug] -10.52): 36.5196 and 13.1215 and 30.515 and 10.8765 and -4.6118 and 7.301 and 39.8732 and 28.9894 and 33.9548; response, Fig_S11d dose-response source data (DRD2 (D2 long receptor) [8]; Log[Drug] -11): 25.0067 and 7.067 and 19.399 and -4.2354 and -19.0273 and 3.763 and 32.3665 and 18.8244 and 27.4345; response, Fig_S11d dose-response source data (DRD2 (D2 long receptor) [8]; Log[Drug] -11.52): 11.5335 and 13.2455 and 15.2305 and 7.489 and 4.214 and 9.484 and 32.4836 and 21.3489 and 42.8324; response, Fig_S11d dose-response source data (DRD2 (D2 long receptor) [8]; Log[Drug] -12): 5.306 and -4.8923 and -12.733 and -1.883 and -0.2081 and -16.5056 and -3.2274 and 22.4524 and -2.0571; Emax (DRD2 (D2 long receptor) [8]; HEK-293T, read-out: Emax relative to quinpirole response, DRD2, cAMP inhibition): 95.2%; EC50 (DRD2 F1103.28L [9]; DRD2 F1103.28L (b138 head prints DRD2 F1063.28L)): 0.00361 ± 7e-05 µM; Emax (DRD2 F1103.28L [9]; read-out: Emax relative to quinpirole response, DRD2 F1103.28L): 72.6%; Ki [10]: 4.07 µM; EC50 (DRD4 (D4.4 variant) [11]): > 10 µM; EC50 (DRD3 F1063.28A [12]): > 10 µM; EC50 (DRD2 F1103.28L [13]): 0.504 µM; Emax (DRD2 F1103.28L [13]; [14]): 25.8%
